Reference: ChEMBL document CHEMBL4396916, “Novel potent substituted 4-amino-2-thiopyrimidines as dual VEGFR-2 and BRAF kinase inhibitors” (Eur J Med Chem, 2019)

Legend:
KM12 = test: Growth inhibition of human KM12 cells at 10 uM incubated for 48 hrs by sulforhodamine B assay relative to control; assay type: functional; conditions: KM12, 48 h, read-out: GI
LOX IMVI = test: Growth inhibition of human LOXIMVI cells at 10 uM incubated for 48 hrs by sulforhodamine B assay relative to control; assay type: functional; conditions: read-out: GI
SN12C = test: Growth inhibition of human SN12C cells at 10 uM incubated for 48 hrs by sulforhodamine B assay relative to control; assay type: functional; conditions: read-out: GI
HOP-92 = test: Growth inhibition of human HOP92 cells at 10 uM incubated for 48 hrs by sulforhodamine B assay relative to control; assay type: functional; conditions: HOP-92, 48 h, read-out: GI
Hs-578T = test: Growth inhibition of human Hs578T cells at 10 uM incubated for 48 hrs by sulforhodamine B assay relative to control; assay type: functional; conditions: read-out: GI
T47D [1] = test: Cytotoxicity against human T47D cells expressing wild type BRAF measured after 48 hrs by sulforhodamine B assay; assay type: functional, cell-based
MCF7 [2] = test: Inhibition of VEGFR2 level in human MCF7 cells at 10 uM measured after 48 hrs by ELISA relative to control; assay type: functional; conditions: MCF7, 48 h
SR = test: Growth inhibition of human SR cells at 10 uM incubated for 48 hrs by sulforhodamine B assay relative to control; assay type: functional; conditions: read-out: GI
NCI/ADR-RES = test: Growth inhibition of human NCI/ADR-RES cells at 10 uM incubated for 48 hrs by sulforhodamine B assay relative to control; assay type: functional; conditions: read-out: GI
HT-29 = test: Growth inhibition of human HT-29 cells at 10 uM incubated for 48 hrs by sulforhodamine B assay relative to control; assay type: functional; conditions: HT-29, 48 h, read-out: GI
OVCAR-4 = test: Growth inhibition of human OVCAR4 cells at 10 uM incubated for 48 hrs by sulforhodamine B assay relative to control; assay type: functional; conditions: OVCAR-4, 48 h, read-out: GI
RXF 393 = test: Growth inhibition of human RXF393 cells at 10 uM incubated for 48 hrs by sulforhodamine B assay relative to control; assay type: functional; conditions: RXF 393, 48 h, read-out: GI
MCF7 [3] = test: Cytotoxicity against human MCF7 cells expressing VEGFR2 and wild type BRAF measured after 48 hrs by sulforhodamine B assay; assay type: functional, cell-based; conditions: MCF7, 48 h
T47D [4] = test: Growth inhibition of human T47D cells at 10 uM incubated for 48 hrs by sulforhodamine B assay relative to control; assay type: functional; conditions: read-out: GI
IGROV-1 = test: Growth inhibition of human IGROV1 cells at 10 uM incubated for 48 hrs by sulforhodamine B assay relative to control; assay type: functional; conditions: IGROV-1, 48 h, read-out: GI
MOLT-4 = test: Growth inhibition of human MOLT4 cells at 10 uM incubated for 48 hrs by sulforhodamine B assay relative to control; assay type: functional; conditions: MOLT-4, 48 h, read-out: GI
NCI-H522 = test: Growth inhibition of human NCI-H522 cells at 10 uM incubated for 48 hrs by sulforhodamine B assay relative to control; assay type: functional; conditions: NCI-H522, 48 h, read-out: GI
M14 = test: Growth inhibition of human M14 cells at 10 uM incubated for 48 hrs by sulforhodamine B assay relative to control; assay type: functional; conditions: M14, 48 h, read-out: GI
SK-MEL-5 = test: Growth inhibition of human SK-MEL-5 cells at 10 uM incubated for 48 hrs by sulforhodamine B assay relative to control; assay type: functional; conditions: SK-MEL-5, 48 h, read-out: GI
HCT-15 = test: Growth inhibition of human HCT15 cells at 10 uM incubated for 48 hrs by sulforhodamine B assay relative to control; assay type: functional; conditions: HCT-15, 48 h, read-out: GI
RPMI-8226 = test: Growth inhibition of human RPMI8226 cells at 10 uM incubated for 48 hrs by sulforhodamine B assay relative to control; assay type: functional; conditions: RPMI-8226, 48 h, read-out: GI
[5] = biological target: Vascular endothelial growth factor receptor 2 (Homo sapiens, UniProt P35968); test: Inhibition of human N-terminal GST tagged VEGFR-2 expressed in baculovirus infected Sf9 cells using poly (Glu,Tyr) 4:1 as substrate in presence of ATP by Kinase-Glo luminescence assay
Chain of Vascular endothelial growth factor receptor 2 (P35968 whole entry): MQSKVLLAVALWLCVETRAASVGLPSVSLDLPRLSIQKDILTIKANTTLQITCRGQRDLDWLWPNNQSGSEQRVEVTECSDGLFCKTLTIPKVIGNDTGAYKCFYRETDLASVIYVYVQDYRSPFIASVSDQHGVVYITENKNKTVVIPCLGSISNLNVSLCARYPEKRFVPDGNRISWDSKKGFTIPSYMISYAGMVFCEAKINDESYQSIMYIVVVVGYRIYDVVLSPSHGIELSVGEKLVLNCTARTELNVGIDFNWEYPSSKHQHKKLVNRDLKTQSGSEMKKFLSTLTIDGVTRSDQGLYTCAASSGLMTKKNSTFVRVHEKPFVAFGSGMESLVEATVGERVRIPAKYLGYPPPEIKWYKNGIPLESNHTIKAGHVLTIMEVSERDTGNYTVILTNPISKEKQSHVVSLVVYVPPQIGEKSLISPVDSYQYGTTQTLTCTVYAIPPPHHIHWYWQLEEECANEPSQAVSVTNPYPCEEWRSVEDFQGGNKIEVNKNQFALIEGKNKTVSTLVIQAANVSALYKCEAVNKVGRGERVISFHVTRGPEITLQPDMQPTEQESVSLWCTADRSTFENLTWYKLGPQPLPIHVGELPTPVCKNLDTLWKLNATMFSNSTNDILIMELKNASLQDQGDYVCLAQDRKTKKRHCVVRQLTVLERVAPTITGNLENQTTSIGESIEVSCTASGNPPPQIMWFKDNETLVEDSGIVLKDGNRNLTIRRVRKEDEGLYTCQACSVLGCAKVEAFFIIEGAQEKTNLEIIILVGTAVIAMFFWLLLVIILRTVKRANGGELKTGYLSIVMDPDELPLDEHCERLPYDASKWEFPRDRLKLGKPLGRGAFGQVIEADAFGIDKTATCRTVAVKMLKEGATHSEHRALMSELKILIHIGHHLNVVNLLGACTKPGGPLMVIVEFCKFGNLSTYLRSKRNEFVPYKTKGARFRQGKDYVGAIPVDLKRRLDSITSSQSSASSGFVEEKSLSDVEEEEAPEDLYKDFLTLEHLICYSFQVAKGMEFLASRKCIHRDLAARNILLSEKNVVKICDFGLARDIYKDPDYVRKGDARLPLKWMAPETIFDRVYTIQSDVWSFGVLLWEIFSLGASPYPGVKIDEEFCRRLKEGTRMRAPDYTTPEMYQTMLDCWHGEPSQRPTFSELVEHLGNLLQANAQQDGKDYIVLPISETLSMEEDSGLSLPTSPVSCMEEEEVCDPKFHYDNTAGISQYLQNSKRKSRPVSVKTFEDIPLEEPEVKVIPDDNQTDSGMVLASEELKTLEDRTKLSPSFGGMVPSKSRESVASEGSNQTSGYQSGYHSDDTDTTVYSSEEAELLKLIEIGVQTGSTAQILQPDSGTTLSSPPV

MCF7 [6] = test: Growth inhibition of human MCF7 cells at 10 uM incubated for 48 hrs by sulforhodamine B assay relative to control; assay type: functional; conditions: MCF7, 48 h, read-out: GI
NCI-H226 = test: Growth inhibition of human NCI-H226 cells at 10 uM incubated for 48 hrs by sulforhodamine B assay relative to control; assay type: functional; conditions: NCI-H226, 48 h, read-out: GI
CCRF-CEM = test: Growth inhibition of human CCRF-CEM cells at 10 uM incubated for 48 hrs by sulforhodamine B assay relative to control; assay type: functional; conditions: read-out: GI
PC-3 = test: Growth inhibition of human PC3 cells at 10 uM incubated for 48 hrs by sulforhodamine B assay relative to control; assay type: functional; conditions: PC-3, 48 h, read-out: GI
MDA-MB-468 = test: Growth inhibition of human MDA-MB-468 cells at 10 uM incubated for 48 hrs by sulforhodamine B assay relative to control; assay type: functional; conditions: MDA-MB-468, 48 h, read-out: GI
SF-539 = test: Growth inhibition of human SF539 cells at 10 uM incubated for 48 hrs by sulforhodamine B assay relative to control; assay type: functional; conditions: SF-539, 48 h, read-out: GI
OVCAR-8 = test: Growth inhibition of human OVCAR8 cells at 10 uM incubated for 48 hrs by sulforhodamine B assay relative to control; assay type: functional; conditions: OVCAR-8, 48 h, read-out: GI
NCI-H23 = test: Growth inhibition of human NCI-H23 cells at 10 uM incubated for 48 hrs by sulforhodamine B assay relative to control; assay type: functional; conditions: NCI-H23, 48 h, read-out: GI
MDA-MB-231 = test: Growth inhibition of human MDA-MB-231 cells at 10 uM incubated for 48 hrs by sulforhodamine B assay relative to control; assay type: functional; conditions: MDA-MB-231, 48 h, read-out: GI
CAKI-1 = test: Growth inhibition of human Caki1 cells at 10 uM incubated for 48 hrs by sulforhodamine B assay relative to control; assay type: functional; conditions: CAKI-1, 48 h, read-out: GI
EKVX = test: Growth inhibition of human EKVX cells at 10 uM incubated for 48 hrs by sulforhodamine B assay relative to control; assay type: functional; conditions: read-out: GI
UO-31 = test: Growth inhibition of human UO31 cells at 10 uM incubated for 48 hrs by sulforhodamine B assay relative to control; assay type: functional; conditions: UO-31, 48 h, read-out: GI
MDA-MB-435 = test: Growth inhibition of human MDA-MB-435 cells at 10 uM incubated for 48 hrs by sulforhodamine B assay relative to control; assay type: functional; conditions: MDA-MB-435, 48 h, read-out: GI
HCT-116 = test: Growth inhibition of human HCT116 cells at 10 uM incubated for 48 hrs by sulforhodamine B assay relative to control; assay type: functional; conditions: HCT-116, 48 h, read-out: GI
NCI-H460 = test: Growth inhibition of human NCI-H460 cells at 10 uM incubated for 48 hrs by sulforhodamine B assay relative to control; assay type: functional; conditions: NCI-H460, 48 h, read-out: GI
BT-549 = test: Growth inhibition of human BT549 cells at 10 uM incubated for 48 hrs by sulforhodamine B assay relative to control; assay type: functional; conditions: BT-549, 48 h, read-out: GI
A498 = test: Growth inhibition of human A498 cells at 10 uM incubated for 48 hrs by sulforhodamine B assay relative to control; assay type: functional; conditions: A498, 48 h, read-out: GI
UACC-62 = test: Growth inhibition of human UACC62 cells at 10 uM incubated for 48 hrs by sulforhodamine B assay relative to control; assay type: functional; conditions: UACC-62, 48 h, read-out: GI
SNB-75 = test: Growth inhibition of human SNB75 cells at 10 uM incubated for 48 hrs by sulforhodamine B assay relative to control; assay type: functional; conditions: SNB-75, 48 h, read-out: GI
K562 = test: Growth inhibition of human K562 cells at 10 uM incubated for 48 hrs by sulforhodamine B assay relative to control; assay type: functional; conditions: K562, 48 h, read-out: GI
OVCAR-3 = test: Growth inhibition of human OVCAR3 cells at 10 uM incubated for 48 hrs by sulforhodamine B assay relative to control; assay type: functional; conditions: OVCAR-3, 48 h, read-out: GI
SNB-19 = test: Growth inhibition of human SNB19 cells at 10 uM incubated for 48 hrs by sulforhodamine B assay relative to control; assay type: functional; conditions: SNB-19, 48 h, read-out: GI

COc1ccc(C(=O)CSc2nccc(Nc3cccc(C(C)=O)c3)n2)cc1
inhibition of growth at 10 µM (KM12): 15%
inhibition of growth at 10 µM (LOX IMVI): 23%
inhibition of growth at 10 µM (SN12C): 22%
inhibition of growth at 10 µM (HOP-92): 24%
inhibition of growth at 10 µM (Hs-578T): 19%
IC50 (T47D [1]): 13.2 µM
inhibition at 10 µM (MCF7 [2]): 16%
inhibition of growth at 10 µM (SR): 35%
inhibition of growth at 10 µM (NCI/ADR-RES): 40%
inhibition of growth at 10 µM (HT-29): 11%
inhibition of growth at 10 µM (OVCAR-4): 19%
inhibition of growth at 10 µM (RXF 393): 14%
IC50 (MCF7 [3]): 67.1 µM
inhibition of growth at 10 µM (T47D [4]): 45%
inhibition of growth at 10 µM (IGROV-1): 18%
inhibition of growth at 10 µM (MOLT-4): 53%
inhibition of growth at 10 µM (NCI-H522): 37%
inhibition of growth at 10 µM (M14): 15%
inhibition of growth at 10 µM (SK-MEL-5): 22%
inhibition of growth at 10 µM (HCT-15): 22%
inhibition of growth at 10 µM (RPMI-8226): 42%
IC50 [5]: 0.42 µM
inhibition of growth at 10 µM (MCF7 [6]): 11%
inhibition of growth at 10 µM (NCI-H226): 35%
inhibition of growth at 10 µM (CCRF-CEM): 46%
inhibition of growth at 10 µM (PC-3): 37%
inhibition of growth at 10 µM (MDA-MB-468): 34%
inhibition of growth at 10 µM (SF-539): 12%
inhibition of growth at 10 µM (OVCAR-8): 32%
inhibition of growth at 10 µM (NCI-H23): 19%
inhibition of growth at 10 µM (MDA-MB-231): 27%
inhibition of growth at 10 µM (CAKI-1): 35%
inhibition of growth at 10 µM (EKVX): 29%
inhibition of growth at 10 µM (UO-31): 55%
inhibition of growth at 10 µM (MDA-MB-435): 15%
inhibition of growth at 10 µM (HCT-116): 23%
inhibition of growth at 10 µM (NCI-H460): 14%
inhibition of growth at 10 µM (BT-549): 27%
inhibition of growth at 10 µM (A498): 22%
inhibition of growth at 10 µM (UACC-62): 35%
inhibition of growth at 10 µM (SNB-75): 31%
inhibition of growth at 10 µM (K562): 37%
inhibition of growth at 10 µM (OVCAR-3): 12%
inhibition of growth at 10 µM (SNB-19): 13%
